{"source": "patent US6455075B1", "about": "“Method for control of insects on plants and plant tissue” (priority 1996, dated 2002)", "key": {"Botrytis cinerea": {"test_system": "Botrytis cinerea", "conditions": "0.05% Hydrogen Peroxide mist during entire propagation; one mature leaf from each of 10 cuttings, averaged", "procedure": "In this study 500 zonal geranium cuttings were treated with a mist during the entire course of their propagation. One mature leaf from each of 10 terminal stem cuttings following treatment were sampled and the data was averaged."}, "Roses": {"test_system": "Roses", "conditions": "after six weeks of observation", "procedure": "(§1) To insure objectivity, the greenhouses selected were not all commonly owned and many varieties of roses were included in the testing. […] The effectiveness of the spray was measured by microbial culture of the surfaces of the greenhouse and the leaf surfaces of the treated and untreated plants. […] It is well known that these fungi are airborne."}, "fungus gnats": {"test_system": "fungus gnats", "conditions": "greenhouse treatment; probably due to removal of food source", "procedure": "as §1"}, "[1]": {"test_system": "mealy bug, white fly, aphids, spider mites, and thrip", "procedure": "as §1"}, "[2]": {"test_system": "total mold count, including Botrytis and those molds causing Powdery Mildew", "procedure": "as §1"}, "[3]": {"test_system": "Botrytis and Black Spot Mold", "conditions": "flowers wetted with dilute solution before wrapping", "procedure": "In the cut flower industry, the moist flowers are wrapped in plastic prior to placement in the shipping boxes for transit. Ice is added to the boxes in many cases to help keep the flowers fresh during transit. This closed, moist environment is very conducive to Botrytis and Black Spot Mold."}, "THRIPS": {"test_system": "THRIPS", "procedure": "(§2) Long and 25 ft. Wide, was filled with various species of household plants, of which most had infestations of some type of insect pest. (Table 2) All other treatments were stopped two weeks prior to treatment with the solution of the present invention. Yellow sticky cards were placed throughout the greenhouse for three days prior to treatment and then were counted for the various species of insects present. The greenhouse was then treated with 12 gallons of a 1:50 dilution of the solution of the present invention using a Dram™ hydraulic sprayer. The house was sprayed on three day intervals for a period of three weeks. Sticky cards were placed in selected areas through out the greenhouse during the three week period."}, "insect populations": {"test_system": "insect populations", "procedure": "as §2"}, "[4]": {"test_system": "various species of household plants", "conditions": "throughout the three week treatment period, most plants in bloom", "procedure": "as §2"}, "[5]": {"test_system": "root rot and other infectious pathogens", "conditions": "cuttings dipped in 0.5% hydrogen peroxide, dilute solution in misting system"}, "[6]": {"test_system": "black mold growing on the excrement of the aphids", "conditions": "leaves of New Guinea Impatiens"}, "plant pathogens": {"test_system": "plant pathogens", "conditions": "dilute solution"}, "living plants": {"test_system": "living plants", "conditions": "dilute solution"}}}
{"smiles": "OO", "note": "[hydrogen peroxide]", "values": [{"measurement": "MICRO-ORGANISMS/LEAF", "setting": "Botrytis cinerea", "result": 38}, {"measurement": "adverse effects upon the plants", "setting": "Roses", "result": "No adverse effects"}, {"measurement": "effect on fungus gnats", "setting": "fungus gnats", "result": "eliminated"}, {"measurement": "effect upon insect pests present in the greenhouse", "setting": "[1]; field trials", "result": "lethal effect"}, {"measurement": "effect on larval stages of insect pests", "setting": "[1]; greenhouse treatment of the preceding example", "result": "destruction of the larval stages"}, {"measurement": "total mold count", "setting": "[2]; 1 % solution sprayed at least four times", "result": "killed or seriously reduced the total mold count"}, {"measurement": "treated plants and surfaces free of total fungi (microbial culture)", "setting": "[2]; after the first application of 1 % hydrogen peroxide", "result": "~100", "unit": "%"}, {"measurement": "recontamination by fungi (microbial culture)", "setting": "[2]; daily applications of 500 PPM over several weeks", "result": "no recontamination by fungi occurred"}, {"measurement": "appearance of detrimental fungi", "setting": "[3]", "result": "prevented and or delayed the appearance of the detrimental fungi"}, {"measurement": "reduction of Thrips", "setting": "THRIPS; 10 days and post 5 treatments, seven day card exposure", "result": "greatly reduced"}, {"measurement": "average Thrips present per card", "setting": "THRIPS; after subsequent treatments, 72 hour exposure time", "result": "7-10"}, {"measurement": "reduction of insect populations", "setting": "insect populations; 10 days and post 5 treatments", "result": "marked reduction of insect populations"}, {"measurement": "reduction in insect populations", "setting": "insect populations; after one treatment, 72 hr card exposure", "result": "did not indicate any significant reduction"}, {"measurement": "phytotoxicity or other detrimental effect to the plants", "setting": "[4]", "result": "no evidence of phytotoxicity"}, {"measurement": "cutting loss", "setting": "[5]", "result": "virtually eliminated cutting loss"}, {"measurement": "effect on black mold", "setting": "[6]", "result": "quickly neutralized the mold"}, {"measurement": "plant pathogens present on the surfaces", "setting": "plant pathogens", "result": "either totally eradicated or substantially reduced"}, {"measurement": "adverse effects on the plants", "setting": "living plants", "result": "no adverse affects"}]}
